Results: patent US12582720B2, “Compound for preventing or treating lipid metabolism-related diseases” (Fudan University, priority 2020, dated 2026)

Key:
[1] = test system: lipid droplets in wild type MEF cells; assay: Reduction of OA-induced lipid droplets in wild type MEF cells (BODIPY 493/503 staining); format: cell-based, mouse; conditions: MEF, unconjugated compound 5 μM
Description: (5) OA-BSA stock solution was prepared into OA-BSA working solution (50× final concentration, 200 μM), and 40 μl of OA-BSA working solution was added to each well to induce lipid droplets. For the non-OA induction group, 40 μl of 10% BSA solution was added to the control well, and the amount of BSA was the same as that of the experimental group.
Compounds were formulated into DMSO stock solutions. Stock compounds were diluted with DMSO into the indicated concentrations of working solutions prior to use in the treatment of cells. After induction of the lipid droplets with OA for the indicated time, the test compounds were added to the cells respectively. Control wells were replaced with the equal volume of DMSO. Unless otherwise stated, the compounds were diluted into 10× solutions using the culture medium and added to the culture medium for 24 hours of incubation. Cells were treated with compounds in a 37° C. incubator with 5% CO2.
(3) The original medium in the multi-well plates was removed, washed and the cells was fixed, 1 ml of the BODIPY solution prepared in (1) was added to each well, and stained for 15 minutes. The staining solution was aspirated and washed with 1×PBS.
(5) The coverslips laid in the multi-well plates were removed, and imaged with the Zeiss 880 confocal microscope after mounted, and analyzed the size and number of lipid droplets with ImageJ.
Wild type MEF cells were cultured in a DMEM culture medium containing 10% FBS. Cells were plated according to the method as described above (12 well plate was plated with aseptic treated slides). When cells grew to a confluence of 60-70%, lipid droplets were induced with OA for 30 h according to the method as described above.
At the time point of 6th hour after initiation of induction, the cells were treated (treated for 24 hours) with Compound 1A or Compound 2A (compound concentrations were 50 μM, 15.8 μM, 5 μM, 1.58 μM, 0.5 μM, 0.158 μM) according to the method as described above.

[2] = test system: lipid droplets in SH-SY5Y cells; assay: Reduction of OA-induced lipid droplets in SH-SY5Y cells; format: cell-based, human; conditions: unconjugated compound 5 μM
Excerpt: The reduction of lipid droplets in SH-SY5Y cells by Compound 1A and Compound 2A was detected by a method that was similar to Example 2, and the result was shown in FIG. 18.
The effects of unconjugated LC3 binding Compound A1, A5 and unconjugated lipid droplet probe ORBB […] respectively on lipid droplets in SH-SY5Y cells (FIG. 20A) and MEF cells (FIG. 20B) were detected by a method similar to Example 2.

[3] = test system: lipid droplets in 3T3-L1 fat precursor cell differentiated fat cells; assay: Lipid droplets in 3T3-L1 fat precursor cell differentiated fat cells; format: cell-based, mouse; conditions: 3T3-L1 differentiated fat cells, 5 μM, 24 h
[4] = test system: autophagosome-lipid droplet colocalization in MEF cells; assay: Colocalization of autophagosome and lipid droplets in mCherry-LC3B transfected MEF cells; format: cell-based, mouse; conditions: 5 μM, 3 h, compared to DMSO control
Outline: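 mCherry-LC3B expressed in MEF cells by plasmid transfection; lipid droplets induced with OA at 30 h post-transfection, compound added 6 h later for 3 h. Cells fixed, stained with BODIPY and DAPI, and LC3 puncta around lipid droplets imaged by confocal microscopy.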

LC3 = LC3 (Homo sapiens, UniProt Q9GZQ8); conditions: reported by Li et al., Nature 575, 203-209 (2019); cited from earlier work
LC3B = LC3B (Homo sapiens, UniProt Q9GZQ8); assay: OI-RD detection of affinity activity with LC3B; format: binding; set-up: Gly-Gly (two glycines added in place of the start Met); His8 (followed by TEV site) (N, cleaved yes); GST (from the pGEX-6P1 backbone) (N, cleaved yes); made in house; host or cells: Escherichia coli BL21(DE3)pLysS; conditions: LC3B 238 nM, read-out: Kd (nM), equilibrium dissociation constant of affinity reaction between the compound and LC3B detected by OI-RD
Description: Each compound was dot printed 3 copies. The compounds that not fixed on surface of the chips were washed, and the chips were sealed and cleaned. OI-RD microscope was used to scan the images. […] The chips were washed and scanned. OI-RD images before, during and after incubation with target protein were obtained. The signal change in real-time dynamic change image was analyzed, and the signal was collected once per 10 millisecond.

O=C1Nc2ccc(I)cc2C1=Cc1cc(Br)c(O)c(Br)c1 [Compound A1, 3-(3,5-dibromo-4-hydroxylbenzylidene)-5-iodoindolin-2-one, reference compound]
lipid droplets (number and size) [1]: did not significantly decrease or become smaller | lipid droplets (number and size) [2]: did not significantly decrease or become smaller | amount/size of lipid droplets [3]: no significant effect | ratio of colocalization of red and green aggregation point (autophagosome-lipid droplet) [4]: No such effect | binding to LC3 (LC3): can bind to LC3 with affinity | Kd (LC3B): 468 nM
